Data published in article PMC10796436, “Peptidyl nitroalkene inhibitors of main protease rationalized by computational and crystallographic investigations as antivirals against SARS-CoV-2” (Communications Chemistry, 2024).
“And” between values parts separate entries of the source, which are not always exact repeats. Equal values may be shown once.

Experiments:
Permeability, PAMPA = type: in vitro ADME; conditions: UV-quantified, 2–7 h
Experimental: Permeability. General principle after Lit.66 Incubation setup: donor (top) plate (Sigma Aldrich, MAIPNTR10), 5 µL artificial membrane (1 % (w/v) L-α-Phosphatidylcholin, Sigma Aldrich P3556, in n-dodecane, Sigma Aldrich 8205430100), acceptor (bottom) plate (Greiner, 655074).
Measurement setup – UV spectroscopy: UV-transparent measurement plate (Greiner UV-Star®, 655801), Tecan Spark® well plate reader, 200 µL sample volume, λ = 200–650 nm. Analysis was performed with AUC function in GraphPad Prism using the indicated wavelength range.
Sigma D5652; pH 7.4 or TRIS 50 mM pH 7.4) aqueous solution with varying final contents of ACN or DMSO as indicated. (“donor solution”). Similarly prepared solutions (buffer + solvent) were used as “acceptor solutions”. 150 µL of donor solution was applied onto the artificial membrane which was applied first to the donor plate. This was sealed (Greiner, 676070, Viewseal sealer). 400 µL of acceptor solution was applied to the acceptor plate. […] After this time, acceptor solution was analyzed with UV spectroscopy. Reference solutions were prepared by simply mixing the indicated volumes of donor and acceptor solutions at the start of the incubation period and analyzed later with the acceptor solutions. […]
After the incubation period, the reference solution was analyzed by LCMS as described under […]
No permeation can be observed in any of the UV-quantified experiments. […]

Huh-7-ACE2 cells = conditions: 24h
[1] = Stability in TRIS buffer pH 7.5 by LCMS (warhead hydration); type: physicochemical
Experimental: (50 mM, pH 7.5), stored at ca. 30 °C and repeatedly analyzed by LCMS (stability in buffer). […]
Analysis was performed using Mestrenova. LCMS setup: Agilent 1100 series HPLC system coupled to an Agilent 1100 series LC/MSD Trap with electron spray ionization (ESI) , Agilent Poroshell 120 EC-C18, 150x2.10 mm, 4 μm column. A linear gradient was used for elution with a ternary pump using [water/ACN/water + 0.1% formic acid] that changes ratios from 80/10/10 to 0/90/10 over the course of 10 min (0.7 mL/min). Areas of peaks in the chromatogram (detection-λ = 326 nm) were used to calculate the change in concentrations. Retention time and mass spectrum recorded in positive ionization mode were used to assign species.
In preparation of experiments with longer incubation periods (metabolic stability, permeability etc.), first general stability in aqueous systems is to be assessed. For this, a TRIS/HCl buffer system at physiological pH was chosen.
In all measurements, only two relevant “species” of FGA146 are identifiable by mass spectrometry: m/z[M+H2O+H]+ = 504 with tR = 4.8 min and m/z[M+H]+ = 486 with tR = 5.1 min.
For quantification by UV AUC, 326 nm is used as detection wavelength. Wavelengths ≤255 nm are unsuitable since extinction coefficients of free and hydrated warhead seem to vastly differ.
Table 10. […] For exemplary depiction of chromatograms that were used to generate this table, compare Figure SX below. […]
tR = 4.8 min tR = 5.1 min m/z[M+H2O+H]+ = 504 m/z[M+H]+ = 486

in vitro = conditions: human

SMILES: COc1cccc2[nH]c(C(=O)N[C@@H](CC(C)C)C(=O)N[C@H](/C=C/[N+](=O)[O-])C[C@@H]3CCNC3=O)cc12 [FGA146]
- permeation (Permeability, PAMPA): No permeation
- CC50 (Huh-7-ACE2 cells): > 100 µM
- equilibrium hydrated to free warhead ([1]; TRIS buffer pH 7.5, ca. 30 °C): 85/15
- time to 50% conversion to hydrated warhead ([1]; TRIS buffer pH 7.5, ca. 30 °C): 1 h
- time until hydration equilibrium is reached ([1]; TRIS buffer pH 7.5, ca. 30 °C): 4 h
- AUCpeak1/AUCTotal (hydrated, m/z 504) ([1]; t 0 h): 10%
- AUCpeak2/AUCTotal (intact, m/z 486) ([1]; t 0 h): 90%
- AUCpeak1/AUCTotal (hydrated, m/z 504) ([1]; t 0.25 h): 20%
- AUCpeak2/AUCTotal (intact, m/z 486) ([1]; t 0.25 h): 80%
- AUCpeak1/AUCTotal (hydrated, m/z 504) ([1]; t 0.5 h): 34%
- AUCpeak2/AUCTotal (intact, m/z 486) ([1]; t 0.5 h): 66%
- AUCpeak1/AUCTotal (hydrated, m/z 504) ([1]; t 1 h): 47% and 53%
- AUCpeak2/AUCTotal (intact, m/z 486) ([1]; t 1 h): 47% and 53%
- AUCpeak1/AUCTotal (hydrated, m/z 504) ([1]; t 3 h): 78%
- AUCpeak2/AUCTotal (intact, m/z 486) ([1]; t 3 h): 22%
- AUCpeak1/AUCTotal (hydrated, m/z 504) ([1]; t 4 h): 83%
- AUCpeak2/AUCTotal (intact, m/z 486) ([1]; t 4 h): 17%
- AUCpeak1/AUCTotal (hydrated, m/z 504) ([1]; t 5 h): 85%
- AUCpeak2/AUCTotal (intact, m/z 486) ([1]; t 5 h): 15%
- AUCpeak1/AUCTotal (hydrated, m/z 504) ([1]; t 7 h): 85%
- AUCpeak2/AUCTotal (intact, m/z 486) ([1]; t 7 h): 14%
- AUCpeak1/AUCTotal (hydrated, m/z 504) ([1]; t 30 h): 83%
- AUCpeak2/AUCTotal (intact, m/z 486) ([1]; t 30 h): 14%
- AUCpeak1/AUCTotal (hydrated, m/z 504) ([1]; t 31 h): 83%
- AUCpeak2/AUCTotal (intact, m/z 486) ([1]; t 31 h): 14%
- conversion to hydrated warhead ([1]; time to LCMS (<10 min)): 10%

SMILES: CC(C)C[C@H](NC(=O)OCc1ccccc1)C(=O)N[C@H](/C=C/[N+](=O)[O-])C[C@@H]1CCNC1=O [FGA147]
- CC50 (in vitro): > 100 µM
